Data reported in patent publication US9969977B2, “Cell populations which co-express CD49c and CD90” (GARNET BIOTHERAPEUTICS, priority 2002, dated 2018).

Test system: cells which co-expressed CD49c and CD90
Assay: qPCR of Sox-2 and Musashi transcripts with and without nifedipine treatment
Format: cell-based, human
Settings: 5 μM nifedipine
Method: The expression of transcripts for Sox-2 and Musashi were determined using quantitative polymerase chain reaction (qPCR). Briefly, Master Cell Bank of CFUs were derived from a bone marrow aspirate and stored as frozen aliquots using the method of Example 1. An aliquot was thawed and the cells were seeded in 96 well plates at 2000 cells/well in complete media and incubated at 37° C. in an atmosphere consisting of 5% carbon dioxide, 5% oxygen and 90% nitrogen for 3 days. On the third day of culture, cells were treated with 5 μM nifedipine (an L-type calcium channel blocker). After 24 hours of treatment, RNA was isolated using the QIAGEN®RNeasy reagents and the Qiagen Biorobot 3000. An aliquot of the eluted RNA was used to synthesize cDNA. Specifically, RNA was mixed with Promega MMLV, dNTPS, decamers and RNasin and incubated at 37° C. for 1 hour, followed by heat inactivation.
For quantitative PCR, cDNA samples were combined with Applied Biosystems SYBR Green PCR Core reagents and amplicon specific primers, as described below, in a 384 well format. The 384 well plate was then transferred to the Applied Biosystems ABI Prism 7900 for qPCR analysis. The qPCR program entailed a 2 minute cycle at 50 degrees, followed by a 10 minute cycle at 95 degrees to activate the polymerase. This was then followed by 40 amplification cycles consisting of 15 seconds of melting at 95 degrees and one minute of extension/annealing at 60 degrees. Cycle threshold values were converted into relative transcript number using a standard curve then normalized using the corresponding 18s. Data are expressed as a ratio of transcript per 10^6 18s transcripts.

Compound: COC(=O)C1=C(C)NC(C)=C(C(=O)OC)C1c1ccccc1[N+](=O)[O-] [nifedipine]
- Sox-2 expression in response to nifedipine (24 hours): 28 transcripts/10^6 transcripts of 18S RNA
- Musashi expression in response to nifedipine (24 hours of stimulation): 0.093 transcripts/10^6 transcripts of 18S RNA
- increase in Musashi expression (24 hours vs unstimulated): ~17 fold
- increase in Sox-2 expression (24 hours vs unstimulated): ~7 fold
